Measured values from US20230257372A1 (CHONG KUN DANG PHARMACEUTICAL CORP., priority 2020, published 2023).

How the values were obtained:
human recombinant HDAC1 = target: T1, human recombinant HDAC1 (Homo sapiens, UniProt Q13547); assay: HDAC1 enzyme activity inhibition (HDAC Fluorimetric Drug Discovery Kit); type: biochemical; settings: human recombinant HDAC1; IC50 calculated with GraphPad Prism; read-out: HDAC1
T1 construct: purchased Enzo Life Science, Inc. BML-SE456
Procedure, shortened: (§1)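 Five-fold compound dilutions incubated with […] recombinant enzyme and 10 μM fluorogenic Fluor de Lys substrate, 60 min at 30° C. Fluor de Lys Developer II then added for 30 min to generate the fluorescent read-out.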

human recombinant HDAC6 = target: T2, human recombinant HDAC6 (Homo sapiens, UniProt Q9UBN7); assay: HDAC6 enzyme activity inhibition (HDAC Fluorimetric Drug Discovery Kit); type: biochemical; settings: for HDAC6 selectivity (fold): HDAC1 IC50 / HDAC6 IC50; for IC50: human recombinant HDAC6, IC50 calculated with GraphPad Prism
T2 construct: purchased Calbiochem Inc. 382180
T2 sequence (Q9UBN7 1-1215): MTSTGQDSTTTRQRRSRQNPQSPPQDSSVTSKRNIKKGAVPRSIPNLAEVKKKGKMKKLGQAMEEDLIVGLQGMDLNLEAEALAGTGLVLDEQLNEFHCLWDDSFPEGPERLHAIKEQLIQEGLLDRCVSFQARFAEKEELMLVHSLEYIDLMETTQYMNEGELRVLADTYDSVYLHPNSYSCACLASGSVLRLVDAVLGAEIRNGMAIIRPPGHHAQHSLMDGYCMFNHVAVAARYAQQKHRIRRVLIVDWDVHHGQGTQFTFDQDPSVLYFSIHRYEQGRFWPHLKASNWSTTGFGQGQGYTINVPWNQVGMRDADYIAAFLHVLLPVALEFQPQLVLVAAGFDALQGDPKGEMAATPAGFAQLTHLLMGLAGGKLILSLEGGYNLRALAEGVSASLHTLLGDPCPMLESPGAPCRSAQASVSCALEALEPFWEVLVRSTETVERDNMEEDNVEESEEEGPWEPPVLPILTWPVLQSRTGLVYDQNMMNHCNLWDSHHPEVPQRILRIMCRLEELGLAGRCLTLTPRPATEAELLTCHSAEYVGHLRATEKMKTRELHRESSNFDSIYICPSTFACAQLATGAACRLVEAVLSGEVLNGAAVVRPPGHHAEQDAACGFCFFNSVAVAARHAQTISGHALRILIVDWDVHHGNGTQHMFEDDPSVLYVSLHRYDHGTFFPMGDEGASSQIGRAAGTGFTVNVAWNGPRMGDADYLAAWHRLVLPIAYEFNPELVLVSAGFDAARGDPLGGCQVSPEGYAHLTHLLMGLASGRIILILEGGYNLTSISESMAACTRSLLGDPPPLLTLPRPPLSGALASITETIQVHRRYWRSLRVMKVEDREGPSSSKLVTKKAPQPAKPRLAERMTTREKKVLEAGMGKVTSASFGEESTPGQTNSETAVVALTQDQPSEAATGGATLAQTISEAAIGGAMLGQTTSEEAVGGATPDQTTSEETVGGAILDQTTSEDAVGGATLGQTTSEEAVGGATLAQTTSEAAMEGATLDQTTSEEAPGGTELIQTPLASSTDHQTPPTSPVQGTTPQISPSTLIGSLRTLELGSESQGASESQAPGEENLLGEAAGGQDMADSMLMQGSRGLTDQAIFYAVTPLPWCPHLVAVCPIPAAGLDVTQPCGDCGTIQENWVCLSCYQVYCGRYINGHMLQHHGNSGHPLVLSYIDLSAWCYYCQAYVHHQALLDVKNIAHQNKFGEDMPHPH
Procedure, shortened: as §1

T1 sequence (Q13547 whole entry): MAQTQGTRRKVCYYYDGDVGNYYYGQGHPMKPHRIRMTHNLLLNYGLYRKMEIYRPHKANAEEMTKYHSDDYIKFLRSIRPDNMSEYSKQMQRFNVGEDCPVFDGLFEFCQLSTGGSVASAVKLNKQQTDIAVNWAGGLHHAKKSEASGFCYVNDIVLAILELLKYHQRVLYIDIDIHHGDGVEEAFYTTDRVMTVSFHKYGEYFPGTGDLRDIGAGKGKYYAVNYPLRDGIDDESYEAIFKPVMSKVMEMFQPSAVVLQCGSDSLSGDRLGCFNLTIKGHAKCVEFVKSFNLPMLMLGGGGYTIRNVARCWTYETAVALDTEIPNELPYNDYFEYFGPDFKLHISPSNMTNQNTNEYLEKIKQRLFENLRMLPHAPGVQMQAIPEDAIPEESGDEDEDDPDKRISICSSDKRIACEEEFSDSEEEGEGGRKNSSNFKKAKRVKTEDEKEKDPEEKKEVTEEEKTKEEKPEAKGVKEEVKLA

FC(F)c1nnc(-c2ccc(Cn3cc(-c4ccc5c(c4)CCN(C4CCC4)C5)nn3)nc2)o1 [Compound 4054, 2-(6-((4-(2-cyclobutyl-1,2,3,4-tetrahydroisoquinolin-6-yl)-1H-1,2,3-triazol-1-yl)methyl)pyridin-3-yl)-5-(difluoromethyl)-1,3,4-oxadiazole]
IC50 (human recombinant HDAC1): > 50000 nM | HDAC6 selectivity (fold) (human recombinant HDAC6): 1094 fold | IC50 (human recombinant HDAC6): 45.7 nM

FC(F)c1nnc(-c2ccc(Cn3cc(-c4cccc5cc[nH]c45)nn3)nc2)o1 [Compound 4071, 2-(6-((4-(1H-indol-7-yl)-1H-1,2,3-triazol-1-yl)methyl)pyridin-3-yl)-5-(difluoromethyl)-1,3,4-oxadiazole]
IC50 (human recombinant HDAC1): > 50000 nM | HDAC6 selectivity (fold) (human recombinant HDAC6): 347 fold | IC50 (human recombinant HDAC6): 144 nM

FC(F)c1nnc(-c2ccc(Cn3cc(-c4ccc5sccc5c4)nn3)nc2)o1 [Compound 4074, 2-(6-((4-(benzo[b]thiophen-5-yl)-1H-1,2,3-triazol-1-yl)methyl)pyridin-3-yl)-5-(difluoromethyl)-1,3,4-oxadiazole]
IC50 (human recombinant HDAC1): > 50000 nM | HDAC6 selectivity (fold) (human recombinant HDAC6): 602 fold | IC50 (human recombinant HDAC6): 83 nM

Fc1cc(-c2nnc(C(F)F)o2)ccc1Cn1cc(-c2ccc3cc[nH]c3c2)nn1 [Compound 4077, 2-(4-((4-(1H-indol-6-yl)-1H-1,2,3-triazol-1-yl)methyl)-3-fluorophenyl)-5-(difluoromethyl)-1,3,4-oxadiazole]
IC50 (human recombinant HDAC1): > 50000 nM | HDAC6 selectivity (fold) (human recombinant HDAC6): 591 fold | IC50 (human recombinant HDAC6): 84.5 nM

FC(F)c1nnc(-c2ccc(Cn3cc(-c4cccc5[nH]ccc45)nn3)cc2)o1 [Compound 4078, 2-(4-((4-(1H-indol-4-yl)-1H-1,2,3-triazol-1-yl)methyl)phenyl)-5-(difluoromethyl)-1,3,4-oxadiazole]
IC50 (human recombinant HDAC1): > 50000 nM | HDAC6 selectivity (fold) (human recombinant HDAC6): 1424 fold | IC50 (human recombinant HDAC6): 35.1 nM

FC(F)c1nnc(-c2ccc(Cn3cc(-c4cccc5cc[nH]c45)nn3)cc2)o1 [Compound 4081, 2-(4-((4-(1H-indol-7-yl)-1H-1,2,3-triazol-1-yl)methyl)phenyl)-5-(difluoromethyl)-1,3,4-oxadiazole]
IC50 (human recombinant HDAC1): > 50000 nM | HDAC6 selectivity (fold) (human recombinant HDAC6): 478 fold | IC50 (human recombinant HDAC6): 105 nM

Fc1cc(-c2nnc(C(F)F)o2)ccc1Cn1cc(-c2cccc3cc[nH]c23)nn1 [Compound 4082, 2-(4-((4-(1H-indol-7-yl)-1H-1,2,3-triazol-1-yl)methyl)-3-fluorophenyl)-5-(difluoromethyl)-1,3,4-oxadiazole]
IC50 (human recombinant HDAC1): > 50000 nM | HDAC6 selectivity (fold) (human recombinant HDAC6): 349 fold | IC50 (human recombinant HDAC6): 143 nM

FC(F)c1nnc(-c2ccc(Cn3cc(-c4ccccc4N4CCOCC4)nn3)nc2)o1 [Compound 4104, 4-(2-(1-((5-(5-(difluoromethyl)-1,3,4-oxadiazol-2-yl)pyridin-2-yl)methyl)-1H-1,2,3-triazol-4-yl)phenyl)morpholin]
IC50 (human recombinant HDAC1): 33000 nM | HDAC6 selectivity (fold) (human recombinant HDAC6): 500 fold | IC50 (human recombinant HDAC6): 66 nM

FC(F)c1nnc(-c2ccc(Cn3cc(-c4ccc(N5CCOCC5)cc4)nn3)nc2)o1 [Compound 4105, 4-(4-(1-((5-(5-(difluoromethyl)-1,3,4-oxadiazol-2-yl)pyridin-2-yl)methyl)-1H-1,2,3-triazol-4-yl)phenyl)morpholin]
IC50 (human recombinant HDAC1): 34000 nM | HDAC6 selectivity (fold) (human recombinant HDAC6): 979 fold | IC50 (human recombinant HDAC6): 34.7 nM

CN1CCN(c2ccccc2-c2cn(Cc3ccc(-c4nnc(C(F)F)o4)cn3)nn2)CC1 [Compound 4106, 2-(difluoromethyl)-5-(6-((4-(2-(4-methylpiperazin-1-yl)phenyl)-1H-1,2,3-triazol-1-yl)methyl)pyridin-3-yl)-1,3,4-oxadiazole]
IC50 (human recombinant HDAC1): > 50000 nM | HDAC6 selectivity (fold) (human recombinant HDAC6): 877 fold | IC50 (human recombinant HDAC6): 57 nM

FC(F)c1nnc(-c2ccc(Cn3cc(-c4ccccc4)cn3)nc2)o1 [Compound 4133, 2-(difluoromethyl)-5-(6-((4-phenyl-1H-pyrazol-1-yl)methyl)pyridin-3-yl)-1,3,4-oxadiazole]
IC50 (human recombinant HDAC1): > 50000 nM | HDAC6 selectivity (fold) (human recombinant HDAC6): 444 fold | IC50 (human recombinant HDAC6): 113 nM

Fc1cccnc1-c1cn(Cc2ccc(-c3nnc(C(F)F)o3)cn2)nn1 [Compound 4178]
IC50 (human recombinant HDAC1): > 50000 nM | HDAC6 selectivity (fold) (human recombinant HDAC6): 896 fold | IC50 (human recombinant HDAC6): 55.8 nM

Fc1ccnc(-c2cn(Cc3ccc(-c4nnc(C(F)F)o4)cn3)nn2)c1 [Compound 4179, 2-(difluoromethyl)-5-(6-((4-(4-fluoropyridin-2-yl)-1H-1,2,3-triazol-1-yl)methyl)pyridin-3-yl)-1,3,4-oxadiazole]
IC50 (human recombinant HDAC1): > 50000 nM | HDAC6 selectivity (fold) (human recombinant HDAC6): 672 fold | IC50 (human recombinant HDAC6): 74.4 nM

FC(F)c1nnc(-c2ccc(Cn3cc(-c4ccc(Br)cn4)nn3)nc2)o1 [Compound 4180, 2-(6-((4-(5-bromopyridin-2-yl)-1H-1,2,3-triazol-1-yl)methyl)pyridin-3-yl)-5-(difluoromethyl)-1,3,4-oxadiazole]
IC50 (human recombinant HDAC1): > 50000 nM | HDAC6 selectivity (fold) (human recombinant HDAC6): 1506 fold | IC50 (human recombinant HDAC6): 33.2 nM

Cc1ccncc1-c1cn(Cc2ccc(-c3nnc(C(F)F)o3)cn2)nn1 [Compound 4181, 2-(difluoromethyl)-5-(6-((4-(4-methylpyridin-3-yl)-1H-1,2,3-triazol-1-yl)methyl)pyridin-3-yl)-1,3,4-oxadiazole]
IC50 (human recombinant HDAC1): > 50000 nM | HDAC6 selectivity (fold) (human recombinant HDAC6): 1400 fold | IC50 (human recombinant HDAC6): 35.7 nM

FC(F)c1nnc(-c2ccc(Cn3cc(-c4ccc(Br)nc4)nn3)nc2)o1 [Compound 4183, 2-(6-((4-(6-bromopyridin-3-yl)-1H-1,2,3-triazol-1-yl)methyl)pyridin-3-yl)-5-(difluoromethyl)-1,3,4-oxadiazole]
IC50 (human recombinant HDAC1): > 50000 nM | HDAC6 selectivity (fold) (human recombinant HDAC6): 896 fold | IC50 (human recombinant HDAC6): 55.8 nM

Fc1cnccc1-c1cn(Cc2ccc(-c3nnc(C(F)F)o3)cn2)nn1 [Compound 4184, 2-(difluoromethyl)-5-(6-((4-(3-fluoropyridin-4-yl)-1H-1,2,3-triazol-1-yl)methyl)pyridin-3-yl)-1,3,4-oxadiazole]
IC50 (human recombinant HDAC1): > 50000 nM | HDAC6 selectivity (fold) (human recombinant HDAC6): 1291 fold | IC50 (human recombinant HDAC6): 38.7 nM

FC(F)c1nnc(-c2ccc(Cn3cc(-c4ccc5[nH]cc(CN6CCOCC6)c5c4)nn3)cc2)o1 [Compound 4186, 4-((5-(1-(4-(5-(difluoromethyl)-1,3,4-oxadiazol-2-yl)benzyl)-1H-1,2,3-triazol-4-yl)-1H-indol-3-yl)methyl)morpholine]
IC50 (human recombinant HDAC1): > 50000 nM | HDAC6 selectivity (fold) (human recombinant HDAC6): 4464 fold | IC50 (human recombinant HDAC6): 11.2 nM

CN1CCc2ccc(-c3cn(Cc4ccc(-c5nnc(C(F)F)o5)cn4)nn3)cc2C1 [Compound 4209, 2-(difluoromethyl)-5-(6-((4-(2-methyl-1,2,3,4-tetrahydroisoquinolin-7-yl)-1H-1,2,3-triazol-1-yl)methyl)pyridin-3-yl)-1,3,4-oxadiazole]
IC50 (human recombinant HDAC1): > 50000 nM | HDAC6 selectivity (fold) (human recombinant HDAC6): 1298 fold | IC50 (human recombinant HDAC6): 38.5 nM

CCN1CCc2ccc(-c3cn(Cc4ccc(-c5nnc(C(F)F)o5)cn4)nn3)cc2C1 [Compound 4211, 2-(difluoromethyl)-5-(6-((4-(2-ethyl-1,2,3,4-tetrahydroisoquinolin-7-yl)-1H-1,2,3-triazol-1-yl)methyl)pyridin-3-yl)-1,3,4-oxadiazole]
IC50 (human recombinant HDAC1): > 50000 nM | HDAC6 selectivity (fold) (human recombinant HDAC6): 1039 fold | IC50 (human recombinant HDAC6): 48.1 nM

FC(F)c1nnc(-c2ccc(Cn3cc(-c4ccc5c(c4)CN(C4CCC4)CC5)nn3)nc2)o1 [Compound 4212, 2-(6-((4-(2-cyclobutyl-1,2,3,4-tetrahydroisoquinolin-7-yl)-1H-1,2,3-triazol-1-yl)methyl)pyridin-3-yl)-5-(difluoromethyl)-1,3,4-oxadiazole]
IC50 (human recombinant HDAC1): > 50000 nM | HDAC6 selectivity (fold) (human recombinant HDAC6): 1602 fold | IC50 (human recombinant HDAC6): 31.2 nM

FC(F)c1nnc(-c2ccc(Cn3cc(-c4ccc5c(c4)CN(C4COC4)CC5)nn3)nc2)o1 [Compound 4213, 2-(difluoromethyl)-5-(6-((4-(2-(oxetan-3-yl)-1,2,3,4-tetrahydroisoquinolin-7-yl)-1H-1,2,3-triazol-1-yl)methyl)pyridin-3-yl)-1,3,4-oxadiazole]
IC50 (human recombinant HDAC1): > 50000 nM | HDAC6 selectivity (fold) (human recombinant HDAC6): 1730 fold | IC50 (human recombinant HDAC6): 28.9 nM
